Measured values taken from patent publication US20070254895A1, “Crystalline solvate of glucokinase activator” (priority 2006, published 2007).
Values joined by “and” are separate entries in the source; they are usually repeats but may differ in a detail not shown here. Identical values can stand only once.

Assay: Stability samples of IPA solvate analyzed for IPA content and heat of fusion
Format: physicochemical
Description: Differential scanning calorimetry was performed using Perkin Elmer DSC-7 and Diamond DSC, using sealed aluminum pan with a hole in the lid. Sample was heated at a rate of 10° C./min.
The stability sample obtained at various time points and conditions were analyzed for the IPA level and heat of fusion (Table 6). These two variables were plotted against each other to see the correlation (FIG. 17).
Sample was stored in a double PE bag with either metal drum or fiber drum as the container.

[1] = 40° C./75% RH/Fiber drum, double PE bag, 1 month

| IPA (% w/w) (25° C./60% RH/Metal, 3 months) | ΔH (J/g) heat of fusion (25° C./60% RH/Metal, 3 months) [J/g] | IPA (% w/w) (25° C./60% RH/Metal, 6 months) | ΔH (J/g) heat of fusion (25° C./60% RH/Metal, 6 months) [J/g] | IPA (% w/w) (40° C./75% RH/Metal, 1 month) | ΔH (J/g) heat of fusion (40° C./75% RH/Metal, 1 month) | IPA (% w/w) (40° C./75% RH/Metal, 3 months) | ΔH (J/g) heat of fusion (40° C./75% RH/Metal, 3 months) | IPA (% w/w) (40° C./75% RH/Metal, 6 months) | ΔH (J/g) heat of fusion (40° C./75% RH/Metal, 6 months) | IPA (% w/w) (50° C./Metal, 1 month) | ΔH (J/g) heat of fusion (50° C./Metal, 1 month) | Structure (SMILES) | also measured |
| --- | --- | --- | --- | --- | --- | --- | --- | --- | --- | --- | --- | --- | --- |
| 12 | 102.665 | 11.9 | 101.346 | 11.1 | 89.35 J/g | 7.3 | 53.712 J/g and 51.302 J/g and 47.200 J/g | 5 | 32.201 J/g and 29.011 J/g and 26.128 J/g | 12 | 102.033 J/g and 99.554 J/g | CC(C)O.CS(=O)(=O)c1ccc([C@@H](C[C@H]2CCC(=O)C2)C(=O)Nc2cnccn2)cc1Cl [Lot 1] | IPA (% w/w) (5° C./Fiber, 6 months): 12.2 % w/w; ΔH (J/g) heat of fusion (5° C./Fiber, 6 months): 104.917 J/g; IPA (% w/w) (25° C./60% RH/Fiber, 3 months): 12 % w/w; ΔH (J/g) heat of fusion (25° C./60% RH/Fiber, 3 months): 99.861 J/g; IPA (% w/w) (25° C./60% RH/Fiber, 6 months): 12 % w/w; ΔH (J/g) heat of fusion (25° C./60% RH/Fiber, 6 months): 98.112 J/g; IPA (% w/w) (30° C./60% RH/Fiber, 10 months): 11.2 % w/w; ΔH (J/g) heat of fusion (30° C./60% RH/Fiber, 10 months): 87.929 J/g; IPA (% w/w) (30° C./60% RH/Metal, 10 months): 11.5 % w/w; ΔH (J/g) heat of fusion (30° C./60% RH/Metal, 10 months): 99.538 J/g; IPA (% w/w) [1]: 8.9 % w/w; ΔH (J/g) heat of fusion [1]: 65.084 J/g; IPA (% w/w) (40° C./75% RH/Fiber, 3 months): 4.4 % w/w; ΔH (J/g) heat of fusion (40° C./75% RH/Fiber, 3 months): 28.733 J/g and 29.404 J/g and 26.416 J/g and 24.713 J/g; IPA (% w/w) (40° C./75% RH/Fiber, 6 months): 4 % w/w; ΔH (J/g) heat of fusion (40° C./75% RH/Fiber, 6 months): 26.529 J/g; IPA (% w/w) (50° C./Fiber, 1 month): 11.8 % w/w; ΔH (J/g) heat of fusion (50° C./Fiber, 1 month): 105.445 J/g |
| 12 | 104.847 | 12 | 102.406 | 11.6 | 105.006 J/g and 102.972 J/g | 11.3 | 103.326 J/g and 103.52 J/g | 8.4 | 65.867 J/g and 67.851 J/g and 61.796 J/g | 12 | 100.639 J/g | CC(C)O.CS(=O)(=O)c1ccc([C@@H](C[C@H]2CCC(=O)C2)C(=O)Nc2cnccn2)cc1Cl [Lot 3] | IPA (% w/w) (5° C./Metal, 3 months): 12.1 % w/w; ΔH (J/g) heat of fusion (5° C./Metal, 3 months): 107.801 J/g; IPA (% w/w) (5° C./Metal, 6 months): 12.1 % w/w; ΔH (J/g) heat of fusion (5° C./Metal, 6 months): 106.157 J/g |
